Results on three compounds are retold here after patent publication US20200288711A1, “Pyrimidin-4-Carbamate or Urea Derivatives As Herbicides” (Syngenta Participations AG, priority 2017, published 2020).

What all share (assay type): in vivo
Experiment [1] has as its system Setaria faberi (SETFA). Nature of the experiment: B1 pre-emergence herbicidal activity. The settings on record: rate 1000 g/ha, evaluated after 13 days, score 0-5 (5=total damage, 0=no damage); for Control of weed species after pre-emergence application, SETFA: Test 1a. Also noted: key to Pre-emergence herbicidal activity, SETFA: 5=total damage to plant; 0=no damage to plant. As to the method: (§1) Seeds of a variety of test species were sown in standard soil in pots: Triticum aestivium (TRZAW), Avena fatua (AVEFA), Alopecurus myosuroides (ALOMY), Echinochloa crus-galli (ECHCG), Lolium perenne (LOLPE), Zea mays (ZEAMX), Abutilon theophrasti (ABUTH), Amaranthus retroflexus (AMARE) and Setaria faberi (SETFA). After cultivation for one day (pre-emergence) under controlled conditions in a glasshouse (at 24/16° C., day/night; 14 hours light; 65% humidity), the plants were sprayed with an aqueous spray solution derived from the formulation of the technical active ingredient in acetone/water (50:50) solution containing 0.5% Tween 20 (polyoxyethelyene sorbitan monolaurate, CAS RN 9005-64-5). The test plants were then grown in a glasshouse under controlled conditions (at 24/16° C., day/night; 14 hours light; 65% humidity) and watered twice daily. After 13 days, the test was evaluated (5=total damage to plant; 0=no damage to plant).

In experiment [2] the test system is Abutilon theophrasti (ABUTH). The experiment in a line: B2 post-emergence herbicidal activity. The conditions noted are these: Test 2a, rate 1000 g/ha, evaluated after 13 days, score 0-5 (5=total damage, 0=no damage). As to the method:
(§2) Seeds of a variety of test species were sown in standard soil in pots: Triticum aestivium (TRZAW), Avena fatua (AVEFA), Alopecurus myosuroides (ALOMY), Echinochloa crus-galli (ECHCG), Lolium perenne (LOLPE), Zea mays (ZEAMX), Abutilon theophrasti (ABUTH), Amaranthus retroflexus (AMARE) and Setaria faberi (SETFA). After 8 days cultivation (post-emergence) under controlled conditions in a glasshouse (at 24/16° C., day/night; 14 hours light; 65% humidity), the plants were sprayed with an aqueous spray solution derived from the formulation of the technical active ingredient in acetone/water (50:50) solution containing 0.5% Tween 20 (polyoxyethelyene sorbitan monolaurate, CAS RN 9005-64-5). The test plants were then grown in a glasshouse under controlled conditions (at 24/16° C., day/night; 14 hours light; 65% humidity) and watered twice daily. After 13 days, the test was evaluated (5=total damage to plant; 0=no damage to plant).

Experiment [3] relates to Zea mays (ZEAMX). Nature of the experiment: B1 pre-emergence herbicidal activity. Also noted: key: 5=total damage to plant; 0=no damage to plant. The conditions noted are these: Test 1a, rate 1000 g/ha, evaluated after 13 days, score 0-5 (5=total damage, 0=no damage). On the procedure:
as §1

Experiment [4] deals with Abutilon theophrasti (ABUTH). Nature of the experiment: B1 pre-emergence herbicidal activity. Set-up: key: 5=total damage to plant; 0=no damage to plant. The settings on record: Test 1a, rate 1000 g/ha, evaluated after 13 days, score 0-5 (5=total damage, 0=no damage). As to the method: as §1
Experiment [5] deals with Amaranthus retroflexus (AMARE). The experiment in a line: B1 pre-emergence herbicidal activity. Also noted: key: 5=total damage to plant; 0=no damage to plant. The conditions noted are these: Test 1a, rate 1000 g/ha, evaluated after 13 days, score 0-5 (5=total damage, 0=no damage). On the procedure: as §1
The subject of experiment [6] is Lolium perenne (LOLPE). The experiment in a line: B1 pre-emergence herbicidal activity. The conditions noted are these: rate 1000 g/ha, evaluated after 13 days, score 0-5 (5=total damage, 0=no damage); for Control of weed species after pre-emergence application, LOLPE: Test 1a. Set-up: key: 5=total damage to plant; 0=no damage to plant. On the procedure:
as §1

Experiment [7] has as its system Echinochloa crus-galli (ECHCG). The experiment in a line: B1 pre-emergence herbicidal activity. Also noted: key to Pre-emergence herbicidal activity, ECHCG: 5=total damage to plant; 0=no damage to plant. The conditions noted are these: rate 1000 g/ha, evaluated after 13 days, score 0-5 (5=total damage, 0=no damage); for Control of weed species after pre-emergence application, ECHCG: Test 1a. As to the method:
as §1

Experiment [8] deals with Zea mays (ZEAMX). Nature of the experiment: B2 post-emergence herbicidal activity. Set-up: key: 5=total damage to plant; 0=no damage to plant. The conditions noted are these: Test 2a, rate 1000 g/ha, evaluated after 13 days, score 0-5 (5=total damage, 0=no damage). On the procedure:
as §2

The test system of experiment [9] is Amaranthus retroflexus (AMARE). The experiment in a line: B2 post-emergence herbicidal activity. Set-up: key: 5=total damage to plant; 0=no damage to plant. The conditions noted are these: Test 2a, rate 1000 g/ha, evaluated after 13 days, score 0-5 (5=total damage, 0=no damage). As to the method:
as §2

Experiment [10] deals with Echinochloa crus-galli (ECHCG). The experiment in a line: B2 post-emergence herbicidal activity. Set-up: key: 5=total damage to plant; 0=no damage to plant. The conditions noted are these: rate 1000 g/ha, evaluated after 13 days, score 0-5 (5=total damage, 0=no damage). As to the method:
as §2

Experiment [11] deals with Setaria faberi (SETFA). The experiment in a line: B2 post-emergence herbicidal activity. Also noted: key: 5=total damage to plant; 0=no damage to plant. The conditions noted are these: rate 1000 g/ha, evaluated after 13 days, score 0-5 (5=total damage, 0=no damage). As to the method:
as §2

The subject of experiment [12] is Lolium perenne (LOLPE). The experiment in a line: B2 post-emergence herbicidal activity. Set-up: key: 5=total damage to plant; 0=no damage to plant. The conditions noted are these: rate 1000 g/ha, evaluated after 13 days, score 0-5 (5=total damage, 0=no damage). On the procedure: as §2
In experiment [13] the test system is Avena fatua (AVEFA). Nature of the experiment: B1 pre-emergence herbicidal activity. Also noted: key: 5=total damage to plant; 0=no damage to plant. The settings on record: Test 1b, rate 1000 g/ha, evaluated after 13 days, score 0-5 (5=total damage, 0=no damage). As to the method: as §1
For experiment [14], the system named is Alopecurus myosuroides (ALOMY). Nature of the experiment: B1 pre-emergence herbicidal activity. Set-up: key: 5=total damage to plant; 0=no damage to plant. The conditions noted are these: Test 1b, rate 1000 g/ha, evaluated after 13 days, score 0-5 (5=total damage, 0=no damage). On the procedure:
as §1

For experiment [15], the system named is Triticum aestivium (TRZAW). The experiment in a line: B1 pre-emergence herbicidal activity. Set-up: key: 5=total damage to plant; 0=no damage to plant. The conditions noted are these: Test 1b, rate 1000 g/ha, evaluated after 13 days, score 0-5 (5=total damage, 0=no damage). As to the method: as §1
Experiment [16] has as its system Avena fatua (AVEFA). The experiment in a line: B2 post-emergence herbicidal activity. Also noted: key: 5=total damage to plant; 0=no damage to plant. The conditions noted are these: Test 2b, rate 1000 g/ha, evaluated after 13 days, score 0-5 (5=total damage, 0=no damage). As to the method: as §2
The subject of experiment [17] is Alopecurus myosuroides (ALOMY). The experiment in a line: B2 post-emergence herbicidal activity. Set-up: key: 5=total damage to plant; 0=no damage to plant. The conditions noted are these: Test 2b, rate 1000 g/ha, evaluated after 13 days, score 0-5 (5=total damage, 0=no damage). As to the method:
as §2

For experiment [18], the system named is Triticum aestivium (TRZAW). Nature of the experiment: B2 post-emergence herbicidal activity. Also noted: key: 5=total damage to plant; 0=no damage to plant. The settings on record: Test 2b, rate 1000 g/ha, evaluated after 13 days, score 0-5 (5=total damage, 0=no damage). On the procedure:
as §2

For the compound `Cc1nc(-c2cncc(F)c2)ncc1NC(=O)OC(C)(C)C` [Compound E1, tert-butyl N-[2-(5-fluoro-3-pyridyl)-4-methyl-pyrimidin-5-yl]carbamate], the “Control of weed species after pre-emergence application, SETFA” value in experiment [1] was determined as 4. The “Control of weed species after post-emergence application, ABUTH” value in experiment [2] is 1. For the same compound, the “Control of weed species after pre-emergence application, ZEAMX” value in experiment [3] is listed as 5. Further, the “Control of weed species after pre-emergence application, ABUTH” value in experiment [4] stood at 0. For the same compound, in [5], the “Control of weed species after pre-emergence application, AMARE” value turned out to be 0. Further, the “Control of weed species after pre-emergence application, LOLPE” value in experiment [6] turned out to be 1. For the same compound, in experiment [7], the “Control of weed species after pre-emergence application, ECHCG” value is 4. Also, in [8], the “Control of weed species after post-emergence application, ZEAMX” value was 5. Further, in experiment [9], the “Control of weed species after post-emergence application, AMARE” value was 2. Moreover, the “Control of weed species after post-emergence application, ECHCG” value in experiment [10] (Test 2a) is reported as 4. Further, in experiment [11] (Test 2a), the “Control of weed species after post-emergence application, SETFA” value was 5. Further, the “Control of weed species after post-emergence application, LOLPE” value in [12] (Test 2a) is recorded as 2.
In the case of `CC(C)(C)OC(=O)Nc1cnc(-c2cncc(F)c2)nc1OCc1ccccc1` [Compound E20], the “Pre-emergence herbicidal activity, SETFA” value in [1] (Test 1b) is 0. Also, the “Pre-emergence herbicidal activity, AVEFA” value in experiment [13] came out at 0. In experiment [14], the “Pre-emergence herbicidal activity, ALOMY” value was found to be 0. Also, the “Pre-emergence herbicidal activity, TRAZW” value in experiment [15] is reported as 0. Besides, in experiment [6] (Test 1b), the “Pre-emergence herbicidal activity, LOLPE” value amounted to 0. For the same compound, in [7] (Test 1b), the “Pre-emergence herbicidal activity, ECHCG” value is 0. The “Control of weed species after post-emergence application, AVEFA” value in [16] came out at 0. In experiment [10] (Test 2b), the “Control of weed species after post-emergence application, ECHCG” value stood at 0. In addition, the “Control of weed species after post-emergence application, SETFA” value in experiment [11] (Test 2b) came out at 1. Besides, the “Control of weed species after post-emergence application, ALOMY” value in [17] came to 0. Further, the “Control of weed species after post-emergence application, TRAZW” value in [18] amounted to 0. Also, the “Control of weed species after post-emergence application, LOLPE” value in [12] (Test 2b) is given as 0.
In the case of `Cc1nc(-c2cncc(F)c2)ncc1N(C)C(=O)OC(C)(C)C` [Compound E2, tert-butyl N-[2-(5-fluoro-3-pyridyl)-4-methyl-pyrimidin-5-yl]-N-methyl-carbamate], the “Control of weed species after pre-emergence application, SETFA” value in experiment [1] is on record as 4. For the same compound, in [2], the “Control of weed species after post-emergence application, ABUTH” value was determined as 1. The “Control of weed species after pre-emergence application, ZEAMX” value in [3] is on record as 4. For the same compound, the “Control of weed species after pre-emergence application, ABUTH” value in experiment [4] was 0. Also, the “Control of weed species after pre-emergence application, AMARE” value in experiment [5] came out at 0. The “Control of weed species after pre-emergence application, LOLPE” value in [6] is reported as 0. Also, the “Control of weed species after pre-emergence application, ECHCG” value in [7] came out at 2. The “Control of weed species after post-emergence application, ZEAMX” value in experiment [8] was 5. For the same compound, the “Control of weed species after post-emergence application, AMARE” value in experiment [9] was 0. Further, the “Control of weed species after post-emergence application, ECHCG” value in [10] (Test 2a) is recorded as 5. Moreover, the “Control of weed species after post-emergence application, SETFA” value in experiment [11] (Test 2a) worked out at 5. Moreover, the “Control of weed species after post-emergence application, LOLPE” value in experiment [12] (Test 2a) is recorded as 2.
